From publication PMC11557573, “Aspergillus flavipes L-methionine γ-lyase-β-cyclodextrin conjugates with improved stability, catalytic efficiency and anticancer activity” (Scientific Reports, 2024)

Tested on: T1, A. flavipes L-methionine γ-lyase (MGL), free MGL
T1 construct: native intracellular enzyme purified from A. flavipes mycelium (acetone, Sephadex G100, DEAE-Sepharose); 48 kDa subunit; PLP enzyme; free (not cyclodextrin-conjugated)
Experiment: released thiol/ammonia assay (DTNB), Lineweaver-Burk
Assay type: biochemical, Aspergillus flavipes
Conditions: free enzyme; standard assay Tris-HCl pH 7.8, 10 μM PLP, 37 °C
From the text: released thiol/ammonia assay (DTNB), Lineweaver-Burk on A. flavipes L-methionine γ-lyase (MGL), free MGL

| Km [mM] | SMILES |
| --- | --- |
| 12.2 | NC(CCS)C(=O)O (racemic) [DL-homocysteine] |
| 7.2 | CSCC[C@H](N)C(=O)O [L-methionine] |

| SMILES | Km [mM] |
| --- | --- |
| N[C@@H](CS)C(=O)O [L-cysteine] | 9.5 |
